Source: the CheMixHub viscosity set
± gives the uncertainty stated by the source.

Assay: xn = mol fraction of the nth substance listed

COCC(C)O (stereo not drawn) + CS(C)=O
viscosity [mPa·s], 101 kPa
Details	298.15 K	303.15 K	308.15 K	313.15 K	318.15 K
x1 = 0.0436	1.79 ± 0.17	1.54 ± 0.15	1.47 ± 0.14	1.39 ± 0.13	1.31 ± 0.13
x1 = 0.0879	1.79 ± 0.17	1.54 ± 0.15	1.47 ± 0.14	1.38 ± 0.13	1.3 ± 0.12
x1 = 0.1327	1.78 ± 0.17	1.53 ± 0.14	1.46 ± 0.14	1.38 ± 0.13	1.3 ± 0.12
x1 = 0.1781	1.78 ± 0.17	1.53 ± 0.14	1.46 ± 0.14	1.37 ± 0.13	1.29 ± 0.12
x1 = 0.2242	1.78 ± 0.17	1.53 ± 0.14	1.46 ± 0.14	1.37 ± 0.13	1.29 ± 0.12
x1 = 0.2709	1.77 ± 0.16	1.53 ± 0.14	1.45 ± 0.14	1.36 ± 0.13	1.29 ± 0.12
x1 = 0.3183	1.77 ± 0.16	1.52 ± 0.14	1.45 ± 0.14	1.36 ± 0.13	1.28 ± 0.12
x1 = 0.3663	1.77 ± 0.16	1.52 ± 0.14	1.45 ± 0.14	1.35 ± 0.13	1.28 ± 0.12
x1 = 0.415	1.76 ± 0.16	1.52 ± 0.14	1.44 ± 0.14	1.35 ± 0.13	1.28 ± 0.12
x1 = 0.4644	1.75 ± 0.16	1.51 ± 0.14	1.43 ± 0.14	1.34 ± 0.13	1.27 ± 0.12
x1 = 0.5145	1.75 ± 0.16	1.51 ± 0.14	1.43 ± 0.14	1.34 ± 0.13	1.26 ± 0.12
x1 = 0.5653	1.75 ± 0.16	1.5 ± 0.14	1.42 ± 0.14	1.33 ± 0.13	1.25 ± 0.12
x1 = 0.6169	1.73 ± 0.16	1.49 ± 0.14	1.41 ± 0.13	1.31 ± 0.13	1.24 ± 0.12
x1 = 0.6692	1.72 ± 0.16	1.47 ± 0.14	1.39 ± 0.13	1.29 ± 0.12	1.22 ± 0.12
x1 = 0.7224	1.7 ± 0.16	1.45 ± 0.14	1.37 ± 0.13	1.27 ± 0.12	1.2 ± 0.12
x1 = 0.7762	1.67 ± 0.16	1.42 ± 0.14	1.34 ± 0.13	1.24 ± 0.12	1.17 ± 0.11
x1 = 0.8864	1.62 ± 0.15	1.36 ± 0.13	1.28 ± 0.12	1.18 ± 0.11	1.11 ± 0.11

O=[N+]([O-])c1ccccc1 + CS(C)=O
viscosity [mPa·s], 101 kPa
Details	x2 = 0.1	x2 = 0.2	x2 = 0.3	x2 = 0.4	x2 = 0.5	x2 = 0.6	x2 = 0.7	x2 = 0.8	x2 = 0.9
298.15 K	1.851 ± 0.018	1.877 ± 0.018	1.903 ± 0.018	1.927 ± 0.018	1.946 ± 0.018	1.962 ± 0.019	1.975 ± 0.019	1.985 ± 0.019	1.993 ± 0.019
308.15 K	1.569 ± 0.015	1.586 ± 0.015	1.605 ± 0.016	1.623 ± 0.016	1.639 ± 0.016	1.653 ± 0.016	1.662 ± 0.016	1.665 ± 0.016	1.664 ± 0.016
318.15 K	1.333 ± 0.013	1.349 ± 0.013	1.353 ± 0.013	1.377 ± 0.014	1.388 ± 0.014	1.396 ± 0.014	1.402 ± 0.014	1.403 ± 0.014	1.4 ± 0.014

ClC(Cl)=C(Cl)Cl + Cc1ccc(C)cc1
303.15 K, 101 kPa
Details	viscosity [mPa·s]
x1 = 0.106	0.586 ± 0.006
x1 = 0.1121	0.588 ± 0.006
x1 = 0.212	0.607 ± 0.006
x1 = 0.6339	0.704 ± 0.007
x1 = 0.6982	0.719 ± 0.007
x1 = 0.7773	0.738 ± 0.007
x1 = 0.8517	0.757 ± 0.007

CN(C)C=O + Cc1ccccc1
Details	viscosity [mPa·s]
293.15 K, 101 kPa, x1 = 0.0501	0.592 ± 0.032
293.15 K, 101 kPa, x1 = 0.1001	0.607 ± 0.032
293.15 K, 101 kPa, x1 = 0.22	0.641 ± 0.034
293.15 K, 101 kPa, x1 = 0.3122	0.668 ± 0.035
293.15 K, 101 kPa, x1 = 0.4002	0.693 ± 0.036
293.15 K, 101 kPa, x1 = 0.5002	0.721 ± 0.037
293.15 K, 101 kPa, x1 = 0.6111	0.751 ± 0.039
293.15 K, 101 kPa, x1 = 0.7003	0.775 ± 0.04
293.15 K, 101 kPa, x1 = 0.8122	0.805 ± 0.041
293.15 K, 101 kPa, x1 = 0.9002	0.828 ± 0.042
298.15 K, 101.3 kPa, x1 = 0.1224	0.584 ± 0.009
298.15 K, 101.3 kPa, x1 = 0.2414	0.612 ± 0.01
298.15 K, 101.3 kPa, x1 = 0.3485	0.639 ± 0.01
298.15 K, 101.3 kPa, x1 = 0.4031	0.654 ± 0.01
298.15 K, 101.3 kPa, x1 = 0.5545	0.699 ± 0.01
298.15 K, 101.3 kPa, x1 = 0.657	0.723 ± 0.011
298.15 K, 101.3 kPa, x1 = 0.7413	0.742 ± 0.011
298.15 K, 101.3 kPa, x1 = 0.8336	0.764 ± 0.011
298.15 K, 101.3 kPa, x1 = 0.9129	0.781 ± 0.011
303.15 K, 101.3 kPa, x1 = 0.1224	0.55 ± 0.009
303.15 K, 101.3 kPa, x1 = 0.2414	0.576 ± 0.009
303.15 K, 101.3 kPa, x1 = 0.3485	0.601 ± 0.01
303.15 K, 101.3 kPa, x1 = 0.4031	0.615 ± 0.01
303.15 K, 101.3 kPa, x1 = 0.5545	0.657 ± 0.01
303.15 K, 101.3 kPa, x1 = 0.657	0.68 ± 0.01
303.15 K, 101.3 kPa, x1 = 0.7413	0.698 ± 0.01
303.15 K, 101.3 kPa, x1 = 0.8336	0.718 ± 0.011
303.15 K, 101.3 kPa, x1 = 0.9129	0.735 ± 0.011
303.15 K, 101.33 kPa, x1 = 0.1037	0.542 ± 0.004
303.15 K, 101.33 kPa, x1 = 0.1731	0.556 ± 0.004
303.15 K, 101.33 kPa, x1 = 0.2947	0.581 ± 0.005
303.15 K, 101.33 kPa, x1 = 0.3985	0.602 ± 0.005
303.15 K, 101.33 kPa, x1 = 0.4729	0.618 ± 0.005
303.15 K, 101.33 kPa, x1 = 0.6004	0.645 ± 0.005
303.15 K, 101.33 kPa, x1 = 0.7147	0.67 ± 0.005
303.15 K, 101.33 kPa, x1 = 0.7974	0.688 ± 0.005
303.15 K, 101.33 kPa, x1 = 0.8981	0.712 ± 0.005
308.15 K, 101.3 kPa, x1 = 0.1224	0.518 ± 0.009
308.15 K, 101.3 kPa, x1 = 0.2414	0.541 ± 0.009
308.15 K, 101.3 kPa, x1 = 0.3485	0.565 ± 0.009
308.15 K, 101.3 kPa, x1 = 0.4031	0.578 ± 0.009
308.15 K, 101.3 kPa, x1 = 0.5545	0.617 ± 0.01
308.15 K, 101.3 kPa, x1 = 0.657	0.638 ± 0.01
308.15 K, 101.3 kPa, x1 = 0.7413	0.655 ± 0.01
308.15 K, 101.3 kPa, x1 = 0.8336	0.674 ± 0.01
308.15 K, 101.3 kPa, x1 = 0.9129	0.69 ± 0.01
313.15 K, 101.3 kPa, x1 = 0.1224	0.49 ± 0.009
313.15 K, 101.3 kPa, x1 = 0.2414	0.512 ± 0.009
313.15 K, 101.3 kPa, x1 = 0.3485	0.534 ± 0.009
313.15 K, 101.3 kPa, x1 = 0.4031	0.547 ± 0.009
313.15 K, 101.3 kPa, x1 = 0.5545	0.584 ± 0.009
313.15 K, 101.3 kPa, x1 = 0.657	0.604 ± 0.01
313.15 K, 101.3 kPa, x1 = 0.7413	0.619 ± 0.01
313.15 K, 101.3 kPa, x1 = 0.8336	0.638 ± 0.01
313.15 K, 101.3 kPa, x1 = 0.9129	0.653 ± 0.01
313.15 K, 101.33 kPa, x1 = 0.1037	0.491 ± 0.004
313.15 K, 101.33 kPa, x1 = 0.1731	0.505 ± 0.004
313.15 K, 101.33 kPa, x1 = 0.2947	0.522 ± 0.004
313.15 K, 101.33 kPa, x1 = 0.3985	0.543 ± 0.004
313.15 K, 101.33 kPa, x1 = 0.4729	0.56 ± 0.004
313.15 K, 101.33 kPa, x1 = 0.6004	0.583 ± 0.005
313.15 K, 101.33 kPa, x1 = 0.7147	0.604 ± 0.005
313.15 K, 101.33 kPa, x1 = 0.7974	0.622 ± 0.005
313.15 K, 101.33 kPa, x1 = 0.8981	0.643 ± 0.005
